Key:
Conditions in all cases: 72 h
Caco-2 [1] = experiment: cell viability relative to DMSO; higher = less toxic
Calu-3 [2] = experiment: as above
HepG2 [3] = experiment: as above
U2OS [4] = experiment: as above
Vero E6 [5] = experiment: as above
Caco-2 [6] = experiment: relative viability EC50 (midpoint between 100% and the lowest measured viability); higher = less toxic
Calu-3 [7] = experiment: as above
HepG2 [8] = experiment: as above
U2OS [9] = experiment: as above
Vero E6 [10] = experiment: as above
Caco-2 [11] = experiment: drug sensitivity score (DSS) for viability; higher = more toxic; extreme values may be limits of the assay
Calu-3 [12] = experiment: as above
HepG2 [13] = experiment: as above
U2OS [14] = experiment: as above
Vero E6 [15] = experiment: as above

| SMILES | cell viability (Caco-2 [1]; 1 nM) | cell viability (Caco-2 [1]; 10 nM) | cell viability (Caco-2 [1]; 100 nM) | cell viability (Caco-2 [1]; 1000 nM) | cell viability (Caco-2 [1]; 10000 nM) | cell viability (Calu-3 [2]; 1 nM) | cell viability (Calu-3 [2]; 10 nM) | cell viability (Calu-3 [2]; 100 nM) | cell viability (Calu-3 [2]; 1000 nM) | cell viability (Calu-3 [2]; 10000 nM) | cell viability (HepG2 [3]; 1 nM) | cell viability (HepG2 [3]; 10 nM) | cell viability (HepG2 [3]; 100 nM) | cell viability (HepG2 [3]; 1000 nM) | cell viability (HepG2 [3]; 10000 nM) | cell viability (U2OS [4]; 1 nM) | cell viability (U2OS [4]; 10 nM) | cell viability (U2OS [4]; 100 nM) | cell viability (U2OS [4]; 1000 nM) | cell viability (U2OS [4]; 10000 nM) | cell viability (Vero E6 [5]; 1 nM) | cell viability (Vero E6 [5]; 10 nM) | cell viability (Vero E6 [5]; 100 nM) | cell viability (Vero E6 [5]; 1000 nM) | cell viability (Vero E6 [5]; 10000 nM) | relative viability EC50 (Caco-2 [6]) | relative viability EC50 (Calu-3 [7]) | relative viability EC50 (HepG2 [8]) | relative viability EC50 (U2OS [9]) | relative viability EC50 (Vero E6 [10]) | drug sensitivity score (Caco-2 [11]) | drug sensitivity score (Calu-3 [12]) | drug sensitivity score (HepG2 [13]) | drug sensitivity score (U2OS [14]) | drug sensitivity score (Vero E6 [15]) |
| --- | --- | --- | --- | --- | --- | --- | --- | --- | --- | --- | --- | --- | --- | --- | --- | --- | --- | --- | --- | --- | --- | --- | --- | --- | --- | --- | --- | --- | --- | --- | --- | --- | --- | --- | --- |
| Oc1cc(O)cc(O)c1 [phloroglucin] | 113% | 91.5% | 104% | 91.6% | 104% | 104% | 105% | 113% | 90.1% | 98.8% | 103% | 104% | 91.8% | 99% | 104% | 101% | 98.3% | 98.7% | 98.2% | 98.7% | 101% | 102% | 98.6% | 103% | 101% | > 10 µM | > 10 µM | > 10 µM | > 10 µM | > 10 µM | 0 | 0 | 0 | 0 | 0 |
| Cc1ccc2c(c1)c1c3n2CCNC3CCC1 (stereo not given) [pirlindole] | 90.9% | 101% | 97.9% | 101% | 104% | 98.1% | 100% | 98% | 102% | 99.1% | 100% | 98% | 99.9% | 102% | 82.4% | 100% | 102% | 96.9% | 103% | 102% | 97.7% | 100% | 97.6% | 101% | 101% | > 10 µM | > 10 µM | > 10 µM | > 10 µM | > 10 µM | 0 | 0 | 0.3 | 0 | 0 |
| Nc1ccc(C(=O)O)cc1 [potassium-p-aminobenzoate] | 95.6% | 97.1% | 95.1% | 102% | 102% | 107% | 97.1% | 99% | 105% | 103% | 102% | 93.6% | 109% | 112% | 103% | 96.2% | 101% | 94.4% | 103% | 94.9% | 105% | 105% | 104% | 97.1% | 100% | > 10 µM | > 10 µM | > 10 µM | > 10 µM | > 10 µM | 0 | 0 | 0 | 0 | 0 |
| OC(CCN1CCCCC1)(c1ccccc1)c1ccccc1 [pridinol] | 96.9% | 108% | 97.9% | 94.9% | 99% | 97.8% | 96.9% | 91.7% | 99.4% | 93.2% | 101% | 95.3% | 101% | 106% | 106% | 99.5% | 102% | 93.7% | 93.5% | 100% | 99.8% | 103% | 100% | 93.8% | 98.5% | > 10 µM | > 10 µM | > 10 µM | > 10 µM | > 10 µM | 0 | 0 | 0 | 0 | 0 |
| CCCNC(C)C(=O)Nc1ccccc1C (stereo not given) [prilocaine] | 95.1% | 100% | 99.1% | 102% | 97.3% | 89% | 102% | 95.5% | 94% | 101% | 113% | 91.9% | 102% | 96.2% | 98.8% | 100% | 108% | 99.3% | 105% | 96.9% | 101% | 98.9% | 92.2% | 99.8% | 96.9% | > 10 µM | > 10 µM | > 10 µM | > 10 µM | > 10 µM | 0 | 0 | 0 | 0 | 0 |
| C[C@H](N[C@@H](CCc1ccccc1)C(=O)O)C(=O)N1Cc2ccccc2C[C@H]1C(=O)O [quinaprilat] | 102% | 98.2% | 96.8% | 100% | 92.1% | 97.5% | 97.6% | 91.3% | 97% | 93.5% | 107% | 94.9% | 98.4% | 110% | 94.9% | 94.7% | 96.1% | 98.3% | 98.1% | 106% | 91.8% | 98.9% | 91.8% | 104% | 106% | > 10 µM | > 10 µM | > 10 µM | > 10 µM | > 10 µM | 0 | 0 | 0 | 0 | 0 |
| c1cc2c(cc1[C@H]1OC[C@H]3[C@@H]1CO[C@@H]3c1ccc3c(c1)OCO3)OCO2 [sesamin] | 93.7% | 95% | 98.4% | 95.7% | 89.2% | 109% | 103% | 102% | 98.1% | 90.1% | 105% | 107% | 102% | 91.1% | 106% | 96.9% | 100% | 102% | 104% | 99.3% | 99.8% | 103% | 94.6% | 99.3% | 99.4% | > 10 µM | > 10 µM | > 10 µM | > 10 µM | > 10 µM | 0 | 0 | 0 | 0 | 0 |
| CCc1cc(/C(C)=N/OCc2ccc(C3CCCCC3)c(C(F)(F)F)c2)ccc1CN1CC(C(=O)O)C1 [siponimod] | 93.6% | 107% | 91.3% | 97.6% | 81.3% | 116% | 99.7% | 98.8% | 96.6% | 97.6% | 104% | 89.8% | 91.3% | 110% | 97.4% | 101% | 99.5% | 96.6% | 101% | 98.7% | 102% | 101% | 98.6% | 96.6% | 96.4% | > 10 µM | > 10 µM | > 10 µM | > 10 µM | > 10 µM | 0.8 | 0 | 0 | 0 | 0 |
| COc1nccnc1NS(=O)(=O)c1ccc(N)cc1 [sulfametopyrazine] | 99.7% | 87.3% | 101% | 89.7% | 102% | 98.5% | 97% | 98.1% | 101% | 102% | 97.6% | 99.7% | 103% | 91.9% | 99.4% | 102% | 95.4% | 104% | 96.8% | 98.9% | 102% | 107% | 95.2% | 100% | 97.5% | > 10 µM | > 10 µM | > 10 µM | > 10 µM | > 10 µM | 0 | 0 | 0 | 0 | 0 |
| CNC(=O)c1cc(COc2nnc(Nc3ccc(Cl)cc3)c3ccoc23)ccn1 [telatinib] | 96.6% | 95.4% | 99.3% | 97.2% | 98.8% | 106% | 106% | 98.8% | 96.6% | 104% | 85.9% | 106% | 97.7% | 101% | 114% | 101% | 97.6% | 101% | 98% | 92.4% | 92.7% | 95.5% | 92.1% | 93.3% | 102% | > 10 µM | > 10 µM | > 10 µM | > 10 µM | > 10 µM | 0 | 0 | 0 | 0 | 0 |
| C/N=C(/NC#N)NCCSCc1csc(NC(=N)N)n1 [tiotidine] | 102% | 94.4% | 104% | 104% | 110% | 99.5% | 97.2% | 91.7% | 101% | 104% | 96.4% | 105% | 98.3% | 108% | 113% | 105% | 96% | 97.9% | 98.6% | 106% | 91.5% | 96.6% | 96.6% | 92.8% | 108% | > 10 µM | > 10 µM | > 10 µM | > 10 µM | > 10 µM | 0 | 0 | 0 | 0 | 0 |
| CCC(=O)N1CCN(c2ccc(-n3c(=O)ccc4cnc5ccc(-c6cnc7ccccc7c6)cc5c43)cc2C(F)(F)F)CC1 [torin-1] | 97.5% | 101% | 89.6% | 49.4% | 31.1% | 108% | 98.7% | 86.4% | 33.7% | 32.4% | 101% | 97.9% | 95% | 53.8% | 26.3% | 100% | 103% | 91.8% | 42.2% | 19% | 93.4% | 94.4% | 88.2% | 57.9% | 39.4% | 0.426 µM | 0.183 µM | 0.684 µM | 0.512 µM | 0.404 µM | 10.7 | 14.4 | 9.8 | 12 | 9.3 |
| Nc1ccc(-c2ccc3ncc4ccc(=O)n(-c5cccc(C(F)(F)F)c5)c4c3c2)cn1 [torin-2] | 89.4% | 69.1% | 32.7% | 21.7% | 17.8% | 86.3% | 62.6% | 30.2% | 22.2% | 18.5% | 91.2% | 81.6% | 41.2% | 16.3% | 3.4% | 92.5% | 90.8% | 26.6% | 11% | 0.5% | 94.6% | 77.1% | 48.6% | 36% | 11.5% | 0.0169 µM | 0.0111 µM | 0.0594 µM | 0.0481 µM | 0.0738 µM | 26.6 | 28.1 | 24.5 | 27.3 | 21 |
| NCCCS(=O)(=O)O [tramiprosate] | 86.1% | 94.8% | 97.7% | 98.1% | 93% | 98.5% | 95.1% | 95% | 96.8% | 98.7% | 108% | 97.4% | 106% | 108% | 109% | 94.6% | 99.2% | 101% | 103% | 94.7% | 95.2% | 95.8% | 100% | 99.7% | 106% | > 10 µM | > 10 µM | > 10 µM | > 10 µM | > 10 µM | 0 | 0 | 0 | 0 | 0 |
| OCC(Br)(Br)Br [tribromoethanol] | 81.4% | 116% | 92.7% | 98.8% | 107% | 91.4% | 95.9% | 98.3% | 106% | 94.2% | 99.3% | 102% | 102% | 97% | 85.4% | 95.3% | 98.3% | 96.7% | 98.8% | 101% | 106% | 96.3% | 108% | 87.7% | 99.9% | > 10 µM | > 10 µM | > 10 µM | > 10 µM | > 10 µM | 0 | 0 | 0.5 | 0 | 0 |
